{"source": "paper PMC10630888", "about": "“Nuclear ERK1/2 signaling potentiation enhances neuroprotection and cognition via Importinα1/KPNA2” (EMBO Molecular Medicine, 2023)", "molecular_target": "T1, ERK1/ERK2-KPNA5 interaction (Homo sapiens, UniProt O15131)", "T1 construct": "host or cells: HEK293", "T1 sequence (O15131 whole entry)": "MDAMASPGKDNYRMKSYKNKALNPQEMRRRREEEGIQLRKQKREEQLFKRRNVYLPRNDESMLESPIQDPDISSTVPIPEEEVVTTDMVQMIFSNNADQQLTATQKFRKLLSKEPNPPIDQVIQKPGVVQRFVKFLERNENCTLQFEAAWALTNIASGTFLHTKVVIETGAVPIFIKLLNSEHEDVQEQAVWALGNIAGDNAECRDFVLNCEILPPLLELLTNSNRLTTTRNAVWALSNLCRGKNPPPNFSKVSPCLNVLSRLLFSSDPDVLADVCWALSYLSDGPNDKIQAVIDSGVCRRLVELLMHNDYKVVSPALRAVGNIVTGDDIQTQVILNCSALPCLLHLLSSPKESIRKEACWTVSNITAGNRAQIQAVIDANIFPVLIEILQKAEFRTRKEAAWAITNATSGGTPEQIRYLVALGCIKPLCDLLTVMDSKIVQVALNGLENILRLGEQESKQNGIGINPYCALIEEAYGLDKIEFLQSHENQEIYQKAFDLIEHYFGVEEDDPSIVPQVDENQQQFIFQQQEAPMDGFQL", "assay": "Proximity ligation assay, ERK1 or ERK2 with KPNA5 in HEK293 cells", "type": "binding", "settings": "HEK293 cells pretreated with RB5 50 μM for 1 h", "description": "1.5 × 10^6 HEK293 cells were seeded onto coverslips in 60 mm dishes. 24 h later, transfection was carried out using calcium phosphate method. 0.5 μg of pCMVTNT‐T7‐KPNA1 (Addgene, #26677), 0.5 μg of pCMVTNT‐T7‐KPNA2 (Addgene, #26678), 0.5 μg of pCMVTNT‐T7‐KPNA3 (Addgene, #26679), 0.5 μg of pCMVTNT‐T7‐KPNA4 (Addgene, #26680), 0.5 μg of pCMVTNT‐T7‐KPNA5 (Addgene, #26681), 1.5 μg of pcDNA3.1+/C‐(K)‐DYK‐KPNA6 (Genscript, #OHu29951D), 0.5 μg of pCMVTNT‐T7‐KPNA7 (Addgene, #26683), 5 μg of pcDNA3.1 +/C‐(K)‐DYK‐IPO7 (Genscript, #OHu11630), 0.5 μg pCMV5‐3HA‐RanBP5 (MRC PPU, University of Dundee, #DU7262), 0.5 μg pCMV5‐3HA‐ KPNB1 (MRC PPU, University of Dundee, #DU5332) were mixed with one of the following plasmids: 0.01 μg of 277.pCCLsin.PPT.hPGK.GFP.PRE, 0.25 μg of 277.pCCLsin.PPT.hPGK.ERK1‐GFP.PRE or 0.25 μg of 277.pCCLsin.PPT.hPGK.ERK2‐GFP.PRE. After approximately 16 h, cell culture medium was replaced with fresh medium. On the following day, cells were washed three times in PBS and fixed in 4% PFA for 15 min. […]\nThe proximity ligation assay was carried out following the manufacturer's instructions. […] The number of GFP‐positive cells, DAPI‐stained cells, and red dots was counted manually using Fiji‐ImageJ software.", "data": [{"sequence": "GRKKRRQRRRPPQGGGGGEPRRTEGVGPGVPGEVEMVKGQPFDV [RB5, six D-amino acids, acetylated N-terminus]", "values": [{"measurement": "ERK1 or ERK2 binding to KPNA5 (PLA)", "result": "unaffected"}]}]}
